Assay results: the NIST ThermoML archive (doi:10.1016/j.jct.2014.09.005)

What was measured:
[1] = xn = mol fraction of the nth substance listed; details: 101 kPa, Liquid; for viscosity: Capillary tube (Ostwald / Ubbelohde) method; for mass density: Vibrating tube method
[2] = refractive index (Na D-line) (dimensionless); xn = mol fraction of the nth substance listed; details: 101 kPa, Liquid, Standard Abbe refractometry

NC1CCCCC1 [cyclohexylamine] + CCCCCCCCCCO
Details | mass density, [1] [kg/m3] | refractive index, [2] | viscosity, [1] [mPa·s]
293.15 K, x2 = 0.0957 | – | 1.4563 | –
293.15 K, x2 = 0.153 | 860.33 | 1.45514 | 3.133
293.15 K, x2 = 0.1955 | – | 1.45413 | –
293.15 K, x2 = 0.1956 | 858.62 | – | 3.48
293.15 K, x2 = 0.2939 | 855.14 | 1.45191 | 4.452
293.15 K, x2 = 0.3417 | 853.45 | 1.45101 | 5.014
293.15 K, x2 = 0.4077 | 851.25 | 1.44965 | 5.81
293.15 K, x2 = 0.4581 | 849.54 | 1.44855 | 6.48
293.15 K, x2 = 0.5059 | 847.91 | 1.44765 | 7.159
293.15 K, x2 = 0.5401 | 846.76 | – | 7.628
293.15 K, x2 = 0.6042 | 844.53 | 1.44562 | 8.558
293.15 K, x2 = 0.6538 | 842.75 | 1.44463 | 9.276
293.15 K, x2 = 0.7021 | 840.98 | 1.44358 | 9.963
293.15 K, x2 = 0.8084 | 837.02 | 1.44133 | 11.52
293.15 K, x2 = 0.8868 | 834.1 | 1.43957 | 12.69
298.15 K, x2 = 0.0957 | – | 1.45392 | –
298.15 K, x2 = 0.153 | 856.19 | 1.45279 | 2.749
298.15 K, x2 = 0.1955 | – | 1.45174 | –
298.15 K, x2 = 0.1956 | 854.54 | – | 3.049
298.15 K, x2 = 0.2939 | 851.2 | 1.44964 | 3.853
298.15 K, x2 = 0.3417 | 849.56 | 1.44874 | 4.308
298.15 K, x2 = 0.4077 | 847.42 | 1.44743 | 4.923
298.15 K, x2 = 0.4581 | 845.76 | 1.44648 | 5.456
298.15 K, x2 = 0.5059 | 844.17 | 1.44554 | 5.991
298.15 K, x2 = 0.5401 | 843.04 | 1.44481 | 6.38
298.15 K, x2 = 0.6042 | 840.86 | 1.44365 | 7.124
298.15 K, x2 = 0.6538 | 839.13 | 1.44254 | 7.689
298.15 K, x2 = 0.7021 | 837.39 | 1.44141 | 8.24
298.15 K, x2 = 0.8084 | 833.53 | 1.43935 | 9.512
298.15 K, x2 = 0.8868 | 830.66 | 1.43762 | 10.41
303.15 K, x2 = 0.0957 | – | 1.4514 | –
303.15 K, x2 = 0.153 | 851.99 | 1.45031 | 2.406
303.15 K, x2 = 0.1955 | – | 1.44938 | –
303.15 K, x2 = 0.1956 | 850.41 | – | 2.663
303.15 K, x2 = 0.2939 | 847.19 | 1.44747 | 3.347
303.15 K, x2 = 0.3417 | 845.61 | 1.44642 | 3.711
303.15 K, x2 = 0.4077 | 843.53 | 1.44514 | 4.216
303.15 K, x2 = 0.4581 | 841.91 | 1.44424 | 4.654
303.15 K, x2 = 0.5059 | 840.37 | 1.44335 | 5.075
303.15 K, x2 = 0.5401 | 839.27 | 1.44256 | 5.393
303.15 K, x2 = 0.6042 | 837.14 | 1.44137 | 5.985
303.15 K, x2 = 0.6538 | 835.46 | 1.44039 | 6.457
303.15 K, x2 = 0.7021 | 833.76 | 1.43943 | 6.893
303.15 K, x2 = 0.8084 | 829.98 | 1.43724 | 7.904
303.15 K, x2 = 0.8868 | 827.17 | 1.43565 | 8.649
